# Counter-ions that a name gives are not always drawn.
# Test system: β-lactamase producing bacteria
# Assay: Test Example 1: MIC of meropenem (MEPM) combined with test compound at fixed 4 μg/mL, broth microdilution
# Type: cell-based
# Conditions: relative to MEPM alone
# Method: Test Example 1: Evaluation of Minimum Inhibitory Concentration (MIC) of MEPM Against β-Lactamase Producing Bacteria
# To evaluate the β-lactamase inhibitory activity of test compounds, the effect of combination of a test compound and a β-lactam agent against β-lactamase producing bacteria was evaluated. Meropenem (MEPM) was used as a β-lactam antimicrobial agent. The minimum inhibitory concentration (MIC) of MEPM against β-lactamase producing bacteria when a test compound was added at a fixed concentration (4 μg/mL) was measured by broth microdilution method (common ratio: 2). MIC of MEPM decreasing to less than 1/32 in combination with a test compound is indicated by A, decreasing from 1/32 to 1/16 is indicated by B, decreasing from ⅛ to ¼ is indicated by C, and decreasing to ½ or others are indicated by D. “-” represents untested cases.
Compound,"Decrease of MIC of MEPM in combination with a test compound, E. coli ATCC BAA-2340 (KPC)","Decrease of MIC of MEPM in combination with a test compound, K. pneumoniae ATCC BAA-2344 (KPC)","Decrease of MIC of MEPM in combination with a test compound, K. pneumoniae ATCC BAA-2524 (OXA-48)"
"O=C(O)c1c(OC2CN(C(=O)Cc3cccnc3)C2)ccc2c1O[B-](O)(O)CC2 [Example 14, 4,4-dihydroxy-8-({1-[(pyridin-3-yl)acetyl]azetidin-3-yl}oxy)-5-oxa-4-boranuidabicyclo[4.4.0]deca-l(6),7,9-triene-7-carboxylic acid disodium salt]",A (MIC of MEPM decreasing to less than 1/32 in combination with a test compound is indicated by A),A (MIC of MEPM decreasing to less than 1/32 in combination with a test compound is indicated by A),B (decreasing from 1/32 to 1/16 is indicated by B)
"N[C@H](C(=O)N1CC(Oc2ccc3c(c2C(=O)O)O[B-](O)(O)CC3)C1)c1ccccc1 [Example 15, 8-({1-[(2S)-2-amino-2-phenylacetyl]azetidin-3-yl}oxy)-4,4-dihydroxy-5-oxa-4-boranuidabicyclo[4.4.0]deca-l(6),7,9-triene-7-carboxylic acid disodium salt]",A (MIC of MEPM decreasing to less than 1/32 in combination with a test compound is indicated by A),A (MIC of MEPM decreasing to less than 1/32 in combination with a test compound is indicated by A),B (decreasing from 1/32 to 1/16 is indicated by B)
"O=C(O)c1c(OC2CN(C(=O)Cc3ccncc3)C2)ccc2c1O[B-](O)(O)CC2 [Example 16, 4,4-dihydroxy-8-({1-[(pyridin-4-yl)acetyl]azetidin-3-yl}oxy)-5-oxa-4-boranuidabicyclo[4.4.0]deca-l(6),7,9-triene-7-carboxylic acid disodium salt]",A (MIC of MEPM decreasing to less than 1/32 in combination with a test compound is indicated by A),,B (decreasing from 1/32 to 1/16 is indicated by B)
"O=C(O)c1c(OC2CN(C(=O)Cc3ccc(O)cc3)C2)ccc2c1O[B-](O)(O)CC2 [Example 17, 4,4-dihydroxy-8-({1-[(4-hydroxyphenyl)acetyl]azetidin-3-yl}oxy)-5-oxa-4-boranuidabicyclo[4.4.0]deca-l(6),7,9-triene-7-carboxylic acid disodium salt]",A (MIC of MEPM decreasing to less than 1/32 in combination with a test compound is indicated by A),B (decreasing from 1/32 to 1/16 is indicated by B),B (decreasing from 1/32 to 1/16 is indicated by B)
"O=C(O)c1c(OC2CN(C(=O)Cn3cncn3)C2)ccc2c1O[B-](O)(O)CC2 [Example 18, 4,4-dihydroxy-8-({1-[(1H-1,2,4-triazol-1-yl)acetyl]azetidin-3-yl}oxy)-5-oxa-4-boranuidabicyclo[4.4.0]deca-l(6),7,9-triene-7-carboxylic acid disodium salt]",A (MIC of MEPM decreasing to less than 1/32 in combination with a test compound is indicated by A),A (MIC of MEPM decreasing to less than 1/32 in combination with a test compound is indicated by A),B (decreasing from 1/32 to 1/16 is indicated by B)
"NC(C(=O)N1CC(Oc2ccc3c(c2C(=O)O)O[B-](O)(O)CC3)C1)c1cnc[nH]1 (stereo not shown) [Example 19, 8-({1-[amino(1H-imidazol-5-yl)acetyl]azetidin-3-yl}oxy)-4,4-dihydroxy-5-oxa-4-boranuidabicyclo[4.4.0]deca-l(6),7,9-triene-7-carboxylic acid disodium salt]",A (MIC of MEPM decreasing to less than 1/32 in combination with a test compound is indicated by A),A (MIC of MEPM decreasing to less than 1/32 in combination with a test compound is indicated by A),B (decreasing from 1/32 to 1/16 is indicated by B)
"O=C(O)c1c(OC2CN(C(=O)Cc3ccccc3)C2)ccc2c1O[B-](O)(O)CC2 [Example 20, 4,4-dihydroxy-8-{[1-(phenylacetyl)azetidin-3-yl]oxy}-5-oxa-4-boranuidabicyclo[4.4.0]deca-l(6),7,9-triene-7-carboxylic acid disodium salt]",A (MIC of MEPM decreasing to less than 1/32 in combination with a test compound is indicated by A),B (decreasing from 1/32 to 1/16 is indicated by B),B (decreasing from 1/32 to 1/16 is indicated by B)
"O=C(O)c1c(OC2CN(C(=O)CCc3ccccc3)C2)ccc2c1O[B-](O)(O)CC2 [Example 21, 4,4-dihydroxy-8-{[1-(3-phenylpropanoyl)azetidin-3-yl]oxy}-5-oxa-4-boranuidabicyclo[4.4.0]deca-l(6),7,9-triene-7-carboxylic acid disodium salt]",A (MIC of MEPM decreasing to less than 1/32 in combination with a test compound is indicated by A),B (decreasing from 1/32 to 1/16 is indicated by B),C (decreasing from ⅛ to ¼ is indicated by C)
"O=C(O)c1c(OC2CN(C(=O)Cn3ccnc3)C2)ccc2c1O[B-](O)(O)CC2 [Example 22, 4,4-dihydroxy-8-({1-[(1H-imidazol-1-yl)acetyl]azetidin-3-yl}oxy)-5-oxa-4-boranuidabicyclo[4.4.0]deca-l(6),7,9-triene-7-carboxylic acid disodium salt]",A (MIC of MEPM decreasing to less than 1/32 in combination with a test compound is indicated by A),A (MIC of MEPM decreasing to less than 1/32 in combination with a test compound is indicated by A),B (decreasing from 1/32 to 1/16 is indicated by B)
"O=C(O)c1c(OC2CN(C(=O)Cn3cnnn3)C2)ccc2c1O[B-](O)(O)CC2 [Example 23, 4,4-dihydroxy-8-({1-[(1H-tetrazol-1-yl)acetyl]azetidin-3-yl}oxy)-5-oxa-4-boranuidabicyclo[4.4.0]deca-l(6),7,9-triene-7-carboxylic acid disodium salt]",,A (MIC of MEPM decreasing to less than 1/32 in combination with a test compound is indicated by A),B (decreasing from 1/32 to 1/16 is indicated by B)
"O=C(O)c1c(OC2CN(C(=O)Cc3nn[nH]n3)C2)ccc2c1O[B-](O)(O)CC2 [Example 24, 4,4-dihydroxy-8-({1-[(2H-tetrazol-5-yl)acetyl]azetidin-3-yl}oxy)-5-oxa-4-boranuidabicyclo[4.4.0]deca-l(6),7,9-triene-7-carboxylic acid disodium salt]",A (MIC of MEPM decreasing to less than 1/32 in combination with a test compound is indicated by A),A (MIC of MEPM decreasing to less than 1/32 in combination with a test compound is indicated by A),B (decreasing from 1/32 to 1/16 is indicated by B)
"N[C@H](Cc1ccccc1)C(=O)N1CC(Oc2ccc3c(c2C(=O)O)O[B-](O)(O)CC3)C1 [Example 25, 4,4-dihydroxy-8-[(1-D-phenylalanylazetidin-3-yl)oxy]-5-oxa-4-boranuidabicyclo[4.4.0]deca-l(6),7,9-triene-7-carboxylic acid disodium salt]",A (MIC of MEPM decreasing to less than 1/32 in combination with a test compound is indicated by A),A (MIC of MEPM decreasing to less than 1/32 in combination with a test compound is indicated by A),B (decreasing from 1/32 to 1/16 is indicated by B)
"N[C@H](Cc1ccc(O)cc1)C(=O)N1CC(Oc2ccc3c(c2C(=O)O)O[B-](O)(O)CC3)C1 [Example 26, 4,4-dihydroxy-8-[(1-D-tyrosylazetidin-3-yl)oxy]-5-oxa-4-boranuidabicyclo[4.4.0]deca-l(6),7,9-triene-7-carboxylic acid disodium salt]",A (MIC of MEPM decreasing to less than 1/32 in combination with a test compound is indicated by A),A (MIC of MEPM decreasing to less than 1/32 in combination with a test compound is indicated by A),A (MIC of MEPM decreasing to less than 1/32 in combination with a test compound is indicated by A)

# Source: patent publication US11066425B1, “Oxo-substituted compound” (SUMITOMO DAINIPPON PHARMA CO., LTD., priority 2018, dated 2021)
